Read-outs that look alike come from different tables or passages of the source.

Data set [1] concerns the target T1, S-nitrosoglutathione reductase (GSNOR) (Homo sapiens, UniProt P11766).
T1 construct: made in house; host or cells: E. coli
Put plainly: GSNOR assay (inhibition of GSNOR activity, NADH absorbance at 340 nm). It counts as biochemical. A digest of the protocol: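 Recombinant GSNOR purified from E. coli, tag removed. Final conditions: 100 mM NaPO4 pH 7.4, 0.240 mM GSNO, 0.300 mM NADH, 0.5 μg/mL enzyme, 1% DMSO; NADH loss followed as 340 nm absorbance change over 3 min at 25 °C. Compounds 100–0.003 μM, triplicate; IC50 by curve analysis.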

Data set [2] deals with dextran sodium sulfate (DSS)-induced IBD. Put plainly: Acute prophylactic model of DSS-induced IBD. It counts as in vivo, mouse. The text has this:
Acute and chronic models of dextran sodium sulfate (DSS)-induced IBD in mice were used to explore efficacy of GSNORi against this disease. Acute and chronic DSS-induced IBD are widely used and well characterized models that induce pathological changes in the colon similar to those observed in the human disease. In these models and in human disease, epithelial cells within the crypts of the colon are disrupted, leading to dysfunction of the epithelial barrier and the ensuing tissue inflammation, edema, and ulceration. GSNORi therapy may benefit IBD by restoring s-nitrosoglutathione (GSNO) levels, and thus prevent or reverse the epithelial barrier dysfunction. Experimental IBD was induced by administration of DSS in the drinking water of male C57Bl/6 mice (N=8 to 10 mice per group) for 6 consecutive days. GSNORi was dosed orally at doses of 0.1 to 10 mg/kg/day for 10 days starting two days prior to and continuing two days post DSS exposure. […] Levels of circulating cytokines involved in inflammatory pathways were also assessed. The effect of GSNORi was compared to vehicle treated controls. […] Naïve mice (N=5) were also assessed as a normal tissue control.

The subject of data set [3] is cigarette smoke-induced COPD. The data set is described as follows: Acute (4 day) cigarette smoke exposure COPD model. It counts as in vivo, mouse. As to conditions: acute 4 day smoke model. The procedure: The efficacy of GSNOR inhibitors was assessed in a mouse model of chronic obstructive pulmonary disease (COPD) induced by short duration (4 days or 11 days) of exposure to cigarette smoke. Infiltration of inflammatory cells into the bronchoalveolar lavage fluid (BALF) and BALF levels of chemokines involved in inflammation and tissue turnover/repair were measured to assess the influences of GSNOR inhibitors on some of the early events associated with the initiation and progression of COPD.
Efficacy of GSNOR inhibitors against COPD was explored using acute (4 day) and subchronic (11 day) models of cigarette smoke-induced COPD in mice. […] In animal models, changes in lung pathology are only evident after extended (several months) duration of exposure to cigarette smoke, thus making chronic models prohibitive as effective screening tools. More recently, models exploring inflammatory responses after short duration (2 weeks or less) of smoke exposure in mice have been utilized as tools for screening efficacy and mechanisms of action of novel therapeutics against COPD. The key roles of inflammation in the initiation and progression of COPD, make these short duration models relevant for initial tests of efficacy of novel therapeutics.
Female C57Bl/6 mice (N=8 per group) were exposed to cigarette smoke using a whole body exposure chamber. Mice were exposed daily for 4 consecutive days to 4 cycles of smoke from 6 sequential cigarettes (Kentucky 3R4F without filter) with a 30 minute smoke free interval between cycles. GSNOR inhibitors were administered daily via oral dosing at 10 mg/kg/day for 7 days starting 2 days prior to smoke exposure and continuing 1 day post-exposure. The effects of GSNOR inhibitors were assessed by quantitating the numbers of total cells, leukocytes, and leukocytes differentials in the BALF via light microscopy and the levels of BALF chemokines via ELISA at approximately 24 h after the last smoke exposure. The effect of GSNOR inhibitors were compared to vehicle treated controls. The PDE4 inhibitor, roflumilast, was used as the positive control for the study. A group of naïve mice (N=8) was exposed to air and used as a negative control for the study.

Data set [4] has as its target T2, GSNOR and NAD+ (Homo sapiens, UniProt P11766).
T2 construct: made in house; host or cells: E. coli
The data set is described as follows: X-ray crystallography of inhibitor bound to GSNOR and NAD+, distance measurement. As to conditions: crystal structure bound to GSNOR and NAD+; O atom of hydroxyl to C atom of carbonyl. The text has this: Single crystal x-ray diffraction is a method useful to understanding the 3-dimensional structure of the binding pocket. The solved crystal structures offer significant information about the GSNOR binding pocket and the interactions of the inhibitors within the binding site. The crystal structure of the ternary complex of GSNOR, NAD+, and Compound IV-10 (Table 4, Example 1) (4-(7-hydroxy-4-oxo-2-(trifluoromethyl)-4H-chromen-3-yl)benzoic acid) was solved. The enzyme-ligand complex crystallized as a homodimer with Compound IV-10 binding to each GSNOR monomer. The key pharmacophores identified from the ternary complex of GSNOR inhibitor with GSNOR and NAD+ are the hydroxyl group on the bicyclic ring of Compound IV-10, which hydrogen bonds to histidine 66, cysteine 44, cysteine 173 and threonine 46. This hydroxyl group is also part of the Zn complex to histidine 66, cysteine 44, and cysteine 173 and threonine 46. The carboxylic acid of Compound IV-10 hydrogen bonds to the glutamine 111 and forms a salt bridge with lysine 283. […]
Once the crystal structures were solved, a distance measurement was made. […] For the second crystal structure with Compound V-1 bound to GSNOR and NAD+, the distance between the hydroxyl group and the carboxylic acid found to be 12.34 Å (measured in the same manner as described above). […]

Data set [5] in a line: Mouse pharmacokinetic (PK) study. It counts as in vivo. To be noted: male, BALB/c, plasma, po, 10 mg/kg, male BALB/c mice, 2 mg/kg IV, 10 mg/kg PO, read-out: oral bioavailability (% F). The text has this:
The mouse was used to determine the pharmacokinetics of compounds of the invention. This species is widely used to assess the bioavailability of compounds by administering both oral (PO) and intravenous (IV) test articles. Efficacy of the compounds of the invention was compared by assessing plasma exposure in male BALB/c mice either via IV or PO administration at the times of peak activity.
Compounds of the invention were reconstituted in a phosphate buffered saline (PBS)/10% Solutol (HS 15) clear solution resulting in a concentration of 0.2 mg/mL and administered to mice (2 mg/kg) as a single IV dose. Animals were dosed via the lateral tail vein. Blood samples were collected at designated time points (0.083, 0.25, 0.5, 1, 2, 4, 8, 16, 24 hours) by cardiac puncture under isoflurane anesthesia (up to 1 mL blood per animal). The blood was collected into tubes containing Li-Heparin. The blood samples were kept on ice until centrifugation within approximately 30 minutes of collection. The plasma was transferred into labeled polypropylene tubes and frozen at −70° C. until analyzed by LC/MS/MS.
The compounds of the invention were reconstituted in 40% Propylene Glycol/40% Propylene Carbonate/20% of a 5% Sucrose clear solution resulting in a concentration of 2 mg/mL and administered to mice (10 mg/kg) as a single oral dose via gavage. Blood samples were collected at 0.25, 0.5, 1, 2, 4, 8, 12, 16, 20 and 24 hours post dose by cardiac puncture under isoflurane anesthesia. The blood was collected in tubes containing Li-Heparin. The blood samples were kept on ice until centrifugation within approximately 30 minutes of collection. The plasma was transferred into labeled polypropylene tubes and frozen at −70° C. until analyzed by LC/MS/MS.
Plasma samples at each timepoint were analyzed using a LC-MS/MS with a lower limit of quantification (LLOQ) of 1 ng/mL. Plasma was analyzed to determine the amount of the compound of the invention in each sample and regression curves generated for each compounds of the invention in the relevant matrixes.
WinNonlin analysis was used for calculating PK parameters for both the IV and PO administrations:
PK parameters for IV portion—AUClast; AUCINF; T1/2; Cl; Vss; Cmax; MRT
PK parameters for PO portion—AUClast; AUCINF; T1/2; Cmax; Cl, MRT.
In addition to the above PK parameters, bioavailability (% F) was calculated.

Where [6] appears, read: GSNOR inhibitor activity, Tables 1-6, read-out: IC50 range.

T1 sequence (P11766 whole entry): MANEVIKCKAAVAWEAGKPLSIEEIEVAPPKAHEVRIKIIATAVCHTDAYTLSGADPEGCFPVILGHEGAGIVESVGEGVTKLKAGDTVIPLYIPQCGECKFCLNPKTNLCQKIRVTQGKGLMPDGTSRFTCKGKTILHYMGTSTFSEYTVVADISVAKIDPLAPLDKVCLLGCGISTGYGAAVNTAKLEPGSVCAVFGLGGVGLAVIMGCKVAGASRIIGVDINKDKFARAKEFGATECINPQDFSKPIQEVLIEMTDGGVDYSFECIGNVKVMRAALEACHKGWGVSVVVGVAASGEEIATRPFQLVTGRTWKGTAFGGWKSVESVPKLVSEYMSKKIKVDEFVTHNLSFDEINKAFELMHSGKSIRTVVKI
T2 sequence (P11766 whole entry): as above

In the case of `O=C(O)c1ccc(-c2ccc3cc(O)ccc3n2)cc1` [Compound I-3], the IC50 (usually the concentration needed to halve the response being measured) in data set [1] (setting [6]) is below 100 nM. Also, in data set [2] (oral 0.1, 1, or 10 mg/kg/day for 10 days), the circulating inflammatory cytokines result is listed as “restored circulating inflammatory cytokines towards levels observed in untreated naïve mice”. In data set [2] (prednisolone 3 mg/kg/day oral), the “effects compared with prednisolone” value is “comparable to or greater than those observed for prednisolone”. Further, the “effects compared with roflumilast” value in data set [3] is given as “comparable to or greater than those observed for roflumilast”. In data set [3] (oral 10 mg/kg/day for 7 days), the BALF chemokines result was “restored BALF chemokines towards levels observed in naïve mice”.

In the case of `O=C(O)c1ccc(-c2c(C(F)(F)F)oc3cc(O)ccc3c2=O)cc1` [IV-10, 4-(7-hydroxy-4-oxo-2-(trifluoromethyl)-4H-chromen-3-yl)benzoic acid], the IC50 in data set [1] (setting [6]) is below 100 nM. Besides, in data set [4], the “distance between the hydroxyl group and the carboxylic acid” value is on record as 12.07 Å. The bioavailability – broadly, the share of a dose that reaches the circulation, judged against a reference dose that is usually intravenous – in data set [5] was above 9%.

`O=C(O)c1ccc(Oc2c(C(F)(F)F)oc3cc(O)ccc3c2=O)cc1` [Compound V-1, 4-(7-hydroxy-4-oxo-2-(trifluoromethyl)-4H-chromen-3-yloxy)benzoic acid]: the IC50 in data set [1] lay within 100 to 1000 nM. Besides, the “distance between the hydroxyl group and the carboxylic acid” value in data set [4] came out at 12.34 Å.
